# Columns and labels:
# [1] = tested on: auricular ganglionic cells; assay: Count of the auricular ganglionic cells in oxazolone-sensitized mice; assay type: in vivo, Balb/c mice; settings: dose series, day 12, cells per animal
# Procedure: (§1) 8-week-old Balb/c mice are pretreated on the abdominal skin from day 1 to day 6 using product A or B, or A and B diluted in ethanol. On day 6, the mice are actively sensitized by the topical application of 50 mg of oxazolone (oxa) in ethanol onto the abdominal skin. On day 11, an application of 20 mg of oxa in ethanol is performed on the right ear.
# On day 12, one day after the repeated application of the oxa, the animals were sacrificed by cervical dislocation. The ganglionic cells are collected and combined by experimental group. A cell suspension is prepared and the cells are then counted. The number of cells is expressed per animal.
# mouse ear oedema = assay: Ear oedema in the delayed hypersensitivity model of mice sensitized with a hapten (oxazolone); assay type: in vivo, Balb/c mice
# Procedure: This test represents a reliable model for predicting the immunomodulatory properties of a product in a pathology of Th1 type such as psoriasis.
# as §1
# Student's t test was used for the statistical analysis of the results.
# The thickness of the ear is measured, using a micrometer, on day 11 (just before the application of oxazolone to the presensitized mice) and after 24 hours, on day 12. The ear oedema is expressed as the difference between the measurement of the thickness of the ear between day 12 and day 11. The values of the thickness of the ear are analyzed statistically using Student's t test.
compound,measurement,setting,value
"CCC(=O)O[C@]1(C(=O)CCl)[C@@H](C)C[C@H]2[C@@H]3CCC4=CC(=O)C=C[C@]4(C)[C@@]3(F)[C@@H](O)C[C@@]21C [product B, clobetasol propionate]",effect on the count of auricular ganglionic cells (FIG. 3),[1],dose-response effect
same,"efficacy on inflammation (ear oedema, FIGS. 1 and 2)","mouse ear oedema; clobetasol propionate alone at 0.01%, topical",moderate efficacy
same,effect of topical application on the intensity of mouse ear oedema (FIG. 1),"mouse ear oedema; dose series, topical pretreatment day 1 to day 6, oedema = ear thickness day 12 minus day 11",dose-response effect

# Source: patent US20060009426A1, “Pharmaceutical compositions comprising calcitriol and a clobetasol propionate” (GALDERMA RESEARCH & DEVELOPMENT, S.N.C., priority 2002, published 2006)
